Experimental data taken from paper PMC11352409, “Subtype-Specific Ligand Binding and Activation Gating in Homomeric and Heteromeric P2X Receptors” (Biomolecules, 2024).

Assays:
human P2X2 receptors = biological target: T1, human P2X2 receptors (Homo sapiens, UniProt Q9UBL9); assay: Whole-cell patch-clamp concentration-activation, HEK293 cells stably expressing hP2X2; assay type: cell-based
T1 construct: expressed in transfected cells
T1 sequence (Q9UBL9 1-404 isoform Q9UBL9-2): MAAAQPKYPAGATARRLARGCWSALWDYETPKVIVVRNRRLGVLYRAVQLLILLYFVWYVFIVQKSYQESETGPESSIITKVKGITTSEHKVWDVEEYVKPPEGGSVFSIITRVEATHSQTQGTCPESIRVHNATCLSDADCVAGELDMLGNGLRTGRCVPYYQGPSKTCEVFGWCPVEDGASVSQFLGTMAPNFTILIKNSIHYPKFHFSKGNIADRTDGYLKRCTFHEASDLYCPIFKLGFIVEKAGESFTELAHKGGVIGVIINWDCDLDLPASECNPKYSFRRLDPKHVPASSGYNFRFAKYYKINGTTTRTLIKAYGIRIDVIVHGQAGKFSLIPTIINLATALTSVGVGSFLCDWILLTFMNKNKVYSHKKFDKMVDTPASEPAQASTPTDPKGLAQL
Protocol: (§1) Human P2X receptors were expressed from HEK293 cell lines containing an inducible promoter system (Flp-In-T-REx 293, Invitrogen, Waltham, MA, USA). The used cell lines were: hP2X2 B (RRID: AC line CVCL_D6U1), hP2X3 (RRID: AC line CVCL_D6U3), and hP2X2/3 (RRID: AC line CVCL_D6U2). The cells were cultured in MEM supplemented with non-essential amino acids (Gibco, Waltham, MA, USA), 10% FCS, and antibiotics, according to the manufacturer’s instructions. For stable cell lines, Flp-In-T-REx 293 cells were transfected using the calcium phosphate method with a mixture of plasmids (0.3 µg pcDNA5/FRT/TO P2X gene and 1.5 µg pOG44) and selected for hygromycin resistance. The cells were seeded on glass coverslips for electrophysiological measurements and used 24–48 h after tetracycline induction ([…]).
(§2) Membrane currents were recorded with a standard patch-clamp technique in the whole-cell configuration. The patch pipettes were pulled from borosilicate glass (ID 1.0 mm, OD 2.0 mm; VITROCOM, Mountain Lakes, NJ, USA) using a micropipette puller (P-97, Sutter Instrument, Novato, CA, USA). The pipettes were filled with intracellular solution containing (mM) 142 NaCl, 5 BAPTA, 5 EGTA, and 10 HEPES at pH 7.4. The pipette resistance was from 2.0 to 6.0 MΩ. The bath solution contained (mM) 142 NaCl, 10 EGTA, 10 HEPES, and 10 glucose at pH 7.4. To increase the speed of recovery from the hP2X3 receptors, we additionally used a bath solution containing (mM) 142 NaCl, 10 HEPES, 10 glucose, 2 CaCl2, and 1 MgCl2. The cells were lifted for recording from the chamber bottom by the patch pipette and positioned in front of the outlet of the application pipette.
(§3) Solutions switches were carried out with the application pipette that had three barrels (inner diameter ~600 µm, Warner Instruments) controlled by a step motor (SF-77B, Warner Instruments). The speed of the laminar solution flow out of the barrels was estimated to be 2–5 cm/s. One barrel contained a control solution and another was connected to a solution selector (Vici Valco Instruments), which allowed us to apply different test solutions by exchanging the solution during the interval (60 sec for P2X2 and P2X2/3 receptors, 180 s for P2X3 receptors) of applying the control solution. Cells expressing hP2X3 were washed with 3 Units/mL apyrase for 30 min to remove ATP. To ensure the comparability of the data points between each application, we rinsed hP2X3 with the following solution for 3 min after each ATP application (mM): 142 NaCl, 10 HEPES, 10 glucose, 2 CaCl2, and 1 MgCl2 at pH 7.4. After sufficient recovery, we switched to the bath solution for 10 s and then to the solution of interest. The speed of the switch around a whole cell was estimated to be below 10 ms by switching between different salt solutions.
(§4) The saturation of activation was determined with ATP at 100 µM. The currents were recorded with a HEKA EPC 10 amplifier in combination with the patchmaster software. The sampling rate was 10 kHz and the recordings were on-line filtered at 2.9 kHz using a four-pole Bessel filter. The currents were recorded at a constant holding potential of −50 mV and the series resistance was compensated with the patchmaster software up to 80%.
(§5) The concentration–activation relationships from whole-cell measurements in the HEK293 cells were obtained from the maximum currents during ATP application. These current amplitudes were normalised with respect to the current at saturating ATP (100 µM) and the resulting data points were fitted I/ImaxATP = Amp/(1 + (EC50/[X])^h) (1) with the Origin 2019® software using a non-linear curve fitting routine. I is the actual current amplitude and ImaxATP is the maximum current amplitude at saturating ATP. The amplitude Amp is the efficacy of the respective ligands. EC50 is the ligand concentration generating the half-maximum current and h is the respective Hill coefficient. [X] is the actual concentration of ATP to be tested. […]

human P2X2/3 receptors = biological target: T2, human P2X2/3 receptors (Homo sapiens, UniProt P56373+Q9UBL9); assay: Whole-cell patch-clamp concentration-activation, HEK293 cells stably expressing hP2X2/3; assay type: cell-based; conditions: for Hill: hP2X2/3, Hill coefficient of concentration-activation fit; for Effect (Fold in ATP Efficacy): hP2X2/3, relative to current at 100 µM ATP; for EC50: hP2X2/3, whole-cell, -50 mV, divalent-cation-free bath with 10 mM EGTA, normalised to 100 µM ATP
T2 construct: expressed in transfected cells
T2 sequence (Q9UBL9 1-404 isoform Q9UBL9-2): T1 sequence (Q9UBL9 1-404 isoform Q9UBL9-2)
T2 sequence (P56373 1-397): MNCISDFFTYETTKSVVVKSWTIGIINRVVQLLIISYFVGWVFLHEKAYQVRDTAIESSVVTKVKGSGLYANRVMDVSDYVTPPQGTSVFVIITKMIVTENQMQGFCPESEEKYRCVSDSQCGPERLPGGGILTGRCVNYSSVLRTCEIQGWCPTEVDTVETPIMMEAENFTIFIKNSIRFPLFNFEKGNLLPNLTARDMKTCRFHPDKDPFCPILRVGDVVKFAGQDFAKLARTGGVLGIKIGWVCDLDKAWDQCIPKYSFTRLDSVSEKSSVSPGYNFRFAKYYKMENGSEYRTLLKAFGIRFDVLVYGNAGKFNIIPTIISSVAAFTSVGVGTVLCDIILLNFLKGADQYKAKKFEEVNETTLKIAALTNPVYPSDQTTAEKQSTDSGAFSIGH
Protocol: as §1, §2, §3, §4, §5

Row | Hill (human P2X2 receptors; hP2X2, Hill coefficient of concentration-activation fit) | Effect (Fold in ATP Potency) (human P2X2 receptors; hP2X2, relative to ATP) [fold] | Effect (Fold in ATP Efficacy) (human P2X2 receptors; hP2X2, relative to current at 100 µM ATP) [fold] | Agonist behaviour (current response) (human P2X2 receptors; hP2X2, result in words) | EC50 (human P2X2 receptors; hP2X2, whole-cell, -50 mV, divalent-cation-free bath with 10 mM EGTA, normalised to 100 µM ATP) [nM] | Hill (human P2X2/3 receptors) | Effect (Fold in ATP Efficacy) (human P2X2/3 receptors) [fold] | Agonist behaviour (current response) (human P2X2/3 receptors; hP2X2/3, result in words) | EC50 (human P2X2/3 receptors) [nM] | Elevation of activation level on co-application with ATP (human P2X2 receptors; hP2X2, 10 µM α,βMe-fATP co-applied with 0.1 µM ATP, versus ATP alone) | Effect of ligand alone on current (human P2X2 receptors; hP2X2, α,βMe-fATP alone (10 µM)) | Effect (Fold in ATP Potency) (human P2X2/3 receptors; hP2X2/3, relative to ATP) [fold] | SMILES
1 | 1.4 ± 0.1 | 0.2 | 1.0 | full agonist | 4600 ± 300 | 0.9 ± 0.2 | 0.4 | partial agonist | 700 ± 300 |  |  |  | COCC[N+]1=C(C=CC=C2N(CCCCCC(=O)NCCCCCCSc3nc(N)c4ncn(C5OC(COP(=O)(O)OP(=O)(O)OP(=O)(O)O)C(O)C5O)c4n3)c3ccc(S(=O)(=O)O)cc3C2(C)C)C(C)(C)c2cc(S(=O)(=O)[O-])ccc21 (stereo not drawn) [fATP, 2-[DY-547P1]-AHT-ATP]
2 |  |  |  |  |  | 4.4 ± 3.5 | 0.03 |  | 1500 ± 600 | approximately 55% | no discernible effect | 1.8 | COCC[N+]1=C(C=CC=C2N(CCCCCC(=O)NCCCCCCSc3nc(N)c4ncn(C5OC(COP(=O)(O)CP(=O)(O)OP(=O)(O)O)C(O)C5O)c4n3)c3ccc(S(=O)(=O)O)cc3C2(C)C)C(C)(C)c2cc(S(=O)(=O)[O-])ccc21 (stereo not drawn) [α,βMe-fATP, 2-[DY-547P1]-AHT-α,βMe-ATP]
